# According to US20070111993A1, “Pharmaceutical composition comprising a salt of mirtazapine” (AKZO NOBEL N.V., priority 2004, published 2007):
# Values joined by “and” are separate entries in the source; they are usually repeats but may differ in a detail not shown here. Equal values may be shown once.
# Tests used:
# Format in all cases: physicochemical
# [1] = Sublimation test (cold finger, HPLC quantification of sublimate); conditions: for Sublimation (result in words): conditions of the sublimation test, non-sublimating = less than 1% in 72 hours at 150 mBar, 60° C.; for Sublimate: drug substance, Pressure: 150 mbar, Test period: 72 hrs
# Description: The property of sublimation can be observed and quantified with known methods to measure sublimation. For example, sublimation can be measured in an apparatus with a chamber in which the test compound is placed in its solid state and maintained in that state by controlled temperature. The gas phase in the chamber, optionally under low pressure, can be analyzed for content of test compound. It is also possible to continuously clear the test compound in the gas phase from the chamber either by a continuous renewal stream of a gas or by creating a sink for the test compound out of the gas phase, for example by a cold surface. The amount of material collected from sublimation or escaped from the sample by sublimation can be analyzed. The degree of sublimation is expressed as the fraction (as percentage) of the initial sample size.
# The term ‘non-sublimating’ salt is defined to be a salt of S- or R-mirtazapine, from which less than 1% of the mirtazapine is sublimating from the sample, calculated on the basis of the amount of the base, when a sample of approximately 10 mg (for example an amount between 8-12 mg) is placed for the duration of 72 hours under standard conditions of 150 mBar pressure and 60° C. temperature.
# Figure: Schematic presentation of the sublimation test equipment. A sample is placed on the bottom of a vessel, which is closed at the top by a vessel-shaped stopper into which cooling liquid (CL) is circulating and which vessel has an outlet connected to a vacuum pump (Vac). The vessel is placed in a closed chamber under constant temperature control (TC). A sublimate (Subl) can accumulate against the surface of the stopper within the vessel.
# A sample (approximately 10 mg) was placed in a sample chamber of sublimation test equipment as illustrated in FIG. 1. The temperature in the sample chamber is controllable. The sample holder has a reduced pressure, which was 150 mBar by default. The sample chamber also consists of a section with reduced temperature (the “cold finger”), where the temperature is approximately 5° C. The majority of material that sublimates in the test sample with high temperature will precipitate on the cold finger. The amount of material on the cold finger after a test period of 72 hrs has been quantified using HPLC analysis. The degree of sublimation is expressed as the fraction material on the cold finger (as percentage) of the initial sample size. Additionally, the sublimation of active compound from tablets “drug product” has been tested.
# [2] = Sublimation observations outside the standard test
# [3] = Hygroscopicity (dynamic vapor sorption / water uptake from air); conditions: for Hygroscopicity / affinity for water: environmental air, ambient conditions, method not stated; for Hygroscopicity: dynamic vapor sorption measurement
# Protocol: To a solution of 3.01 g of S-mirtazapine in 5 ml of methanol was added at room temperature a solution of 1290 μl of hydrobromic acid in 20 ml of ethyl acetate. […] The mixture was cooled to 0° C. whereupon crystallization started. The white crystals were collected by filtration and were dried in a vacuum oven at 40° C. […] A water free drug substance sample attracts water when it comes in contact with environmental air, while it may loose water upon drying.
# [4] = Temperature: 60° C., DL = level of detection
structure (smiles),measurement,setting,value
CN1CCN2c3ncccc3Cc3ccccc3C2C1.O=C(O)C(F)(F)F (stereo not drawn) [S-mirtazapine trifluoroacetic acid salt],Sublimation (result in words),"[1]; listed as trifluoroacetic acid salt of S- or R-mirtazapine, trifluoroacetic acid salt",showed sublimation
same,Sublimation (result in words),[1]; trifluoroacetic acid salt,not a non-sublimating salt
"CN1CCN2c3ncccc3Cc3ccccc3[C@H]2C1 [S-mirtazapine, 1,2,3,4,10,14b-hexahydro-2-methyl-pyrazino[2,1-a]pyrido[2,3-c][2]benzazepine, reference compound]",Sublimation at ambient temperature,[2]; ambient temperature,slowly sublimating
same,Sublimation (result in words),[1],sublimates at the conditions used
same,Sublimate,"[1]; Temperature: 40° C., fraction of initial sample on cold finger, listed as S-mirtazapine Batch E",0.75%
same,Sublimate,"[1]; Temperature: 40° C., fraction of initial sample on cold finger, listed as S-mirtazapine Batch J",0.88%
same,Sublimate,"[1]; Temperature: 60° C., DL = level of detection, listed as S-mirtazapine Batch E",5.32% and 2.22%
same,Sublimate,"[1]; Temperature: 60° C., DL = level of detection, listed as S-mirtazapine Batch J",4.29%
"Br.CN1CCN2c3ncccc3Cc3ccccc3[C@H]2C1 [S-mirtazapine•HBr, S-mirtazapine hydrobromic acid salt]",Sublimation (result in words),[1],do not sublimate
same,Hygroscopicity / affinity for water,[3],forms a monohydrate under ambient conditions
"CN1CCN2c3ncccc3Cc3ccccc3[C@H]2C1.Cl [S-mirtazapine•HCl, S-mirtazapine hydrochloric acid salt]",Temperature above which the compound starts to sublime,[2],above 170 °C
same,Sublimate,[1]; [4],0.2%
same,Hygroscopicity,[3],very hygroscopic
"CN1CCN2c3ncccc3Cc3ccccc3[C@H]2C1.O=C(O)/C=C/C(=O)O [S-mirtazapine•fumaric acid, S-mirtazapine fumaric acid salt]",Sublimation (result in words),[1],do not sublimate
same,Hygroscopicity / affinity for water,[3],attracts water from environmental air to form a hydrate
"CN1CCN2c3ncccc3Cc3ccccc3[C@H]2C1.O=C(O)/C=C\C(=O)O [S-mirtazapine•maleic acid, S-mirtazapine maleic acid salt]",Sublimation (result in words),[1],do not sublimate
same,Hygroscopicity,[3],not hygroscopic
same,Hygroscopicity / affinity for water,[3],not hygroscopic
"CN1CCN2c3ncccc3Cc3ccccc3C2C1.CS(=O)(=O)O (stereo not drawn) [S-mirtazapine•methanesulfonic acid, S-mirtazapine methanesulfonic acid salt]",Sublimation (result in words),[1],non-sublimation
same,Sublimate,[1]; [4],0.1% and 0.0%
same,Hygroscopicity / affinity for water,[3],non-hygroscopicity
